Source: paper PMC4378371, “Subunit disassembly and inhibition of TNFα by a semi-synthetic bicyclic peptide” (Protein Engineering, Design and Selection, 2015)
Bridge positions count the residues as written; N and C are the ends. Peptide text beside a SMILES is read from it.

Key:
TNFα trimer = conditions: TNFα 10 µM with excess peptide 100 µM, longer pre-incubation
TNFα = TNFα (Homo sapiens, UniProt P01375); conditions: L929 assay; unable to fully rescue because of toxicity at higher concentrations
Chain of TNFα (P01375 77-233 limits assumed): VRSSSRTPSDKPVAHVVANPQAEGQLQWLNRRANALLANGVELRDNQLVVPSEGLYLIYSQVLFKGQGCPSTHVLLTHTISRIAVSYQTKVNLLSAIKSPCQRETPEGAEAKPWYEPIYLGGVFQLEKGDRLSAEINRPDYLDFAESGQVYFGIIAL

L929 cells = conditions: at >100 µM compound

SMILES: Cc1c2c(C)c3c(C)c1CSC[C@H](NC(=O)[C@@H]1CCCN1C(=O)[C@@H]1CCCN1C(=O)[C@@H](NC(=O)[C@H](C)N)CSC3)C(=O)N[C@@H](CC(C)C)C(=O)N[C@@H](Cc1c[nH]c3ccccc13)C(=O)N[C@@H](CCC(N)=O)C(=O)N[C@@H](C(C)C)C(=O)N[C@@H](CC(C)C)C(=O)N[C@H](C(=O)NCC(=O)NCC(=O)N[C@@H](CO)C(=O)NCC(=O)N[C@@H](CO)C(=O)NCC(=O)N[C@@H](CO)C(=O)NCC(N)=O)CSC2 [M21h]
- effect on TNFα trimers (MS) (TNFα trimer): converted quantitatively into dimers and monomers

SMILES: CC(C)C[C@H](NC(=O)[C@@H]1CSSC[C@@H]2NC(=O)[C@H](CC(C)C)NC(=O)[C@H](CCC(=O)O)NC(=O)[C@@H](NC(=O)[C@H](CCC(=O)O)NC(=O)[C@H](CC(=O)O)NC(=O)[C@@H](N)CC(N)=O)CSSC[C@H](NC(=O)[C@H](C)NC(=O)[C@H](C(C)C)NC(=O)[C@H](CC(N)=O)NC(=O)[C@H](C(C)C)NC2=O)C(=O)N[C@@H]([C@@H](C)O)C(=O)NCC(=O)N1)C(=O)O [SPD304] (H-NDECELCVNVACTGCL-OH; disulfide 4-12, 7-15)
- maximal rescue of cell viability (TNFα): ≤ 73%
- cell death (L929 cells): 100%
